Among the data in patent US9682114B2, “Plant extracts of Ptaeroxylon obliquum nand compounds having antimicrobial and antihelminthic activity” (UNIVERSITY OF PRETORIA, priority 2013, dated 2017) are Cytotoxicity LC50 values, retold here.

Some results are limits rather than exact numbers.

In the case of `CC(=O)OCC1=CCc2c(cc(O)c3c(=O)cc(C)oc23)OC1` [Compound 2, 8,11-Dihydro-5-hydroxy-12-hydroxymethyl-2-methyl-4H-pyrano[2,3-g][1]benzoxepin-4-one 12-O-acetate], the Cytotoxicity LC50 in the series on Vero monkey kidney cells and in the series with human liver (C3A) cells was over 200 µg/mL throughout.
